Experimental data as given in US20260028326A1, “COMPOUND BASED ON ISOINDOLINE-SUBSTITUTED GLUTARIMIDE BACKBONE AND USE THEREOF” (GLUETACS THERAPEUTICS (SHANGHAI) CO., LTD., priority 2022, published 2026).

What was measured:
[1] = molecular target: human Cereblon WT GST-tagged protein (Homo sapiens (Human), UniProt Q96SW2); experiment: CRBN-binding affinity, HTRF (CEREBLON BINDING kit)
Method in brief: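 GST-tagged human WT Cereblon incubated with compound, then Thalidomide-Re tracer and anti-GST Eu antibody added. Displacement read by HTRF, reported as CRBN binding inhibition rate against blank control wells without protein.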

GSPT1 protein = GSPT1 protein (Homo sapiens (Human), UniProt P15170+Q96SW2); experiment: Western-blot assay of substrate protein degradation in hPBMC, GSPT1; format: cell-based; details: for residual substrate protein level, GSPT1: hPBMC cells, compound 500 nM, 24 hours, Western blot
IKZF1 protein = IKZF1 protein (Homo sapiens (Human), UniProt Q13422+Q96SW2); experiment: Western-blot assay of substrate protein degradation in hPBMC, IKZF1; format: cell-based; details: for residual substrate protein level, IKZF1: hPBMC cells, compound 500 nM, 24 hours, Western blot
IKZF3 protein = IKZF3 protein (Homo sapiens (Human), UniProt Q96SW2+Q9UKT9); experiment: Western-blot assay of substrate protein degradation in hPBMC, IKZF3; format: cell-based; details: for residual substrate protein level, IKZF3: hPBMC cells, compound 500 nM, 24 hours, Western blot
CCRF-CEM cells = experiment: Tumor cell proliferation IC50 (CCK-8), CCRF-CEM; details: Homo sapiens, 96 h, read-out: IC50 for inhibiting the proliferation of tumor cells, CCRF-CEM;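 also: cell viability measured with CCK-8 reagent after compound treatment, IC50 taken from plotted growth inhibition curves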
Procedure: The tumor cells used herein were cultured in a cell culture medium listed in table A at 37° C. in an incubator with 5% CO2.
After the cells were treated with the compounds of the present disclosure for a period of time, the cell viability detection reagent was added to the culture medium for cell viability assessment according to the instructions provided with the CCK-8 kit. […] The growth inhibition of the compounds of the present disclosure on cells was plotted by Prism Graphpad software, and the IC50 values of the compounds of the present disclosure were calculated therefrom.

MM.1S cells = experiment: Tumor cell proliferation IC50 (CCK-8), MM.1S; details: Homo sapiens, MM1.S, 72 h, read-out: IC50 for inhibiting the proliferation of tumor cells, MM.1S;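 also: viability of cultured cells read by CCK-8 reagent after compound exposure, growth inhibition curves fitted to derive IC50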
Mino cells = experiment: Tumor cell proliferation IC50 (CCK-8), Mino; details: Homo sapiens, 72 h, read-out: IC50 for inhibiting the proliferation of tumor cells, Mino;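 also: cell viability assessed with CCK-8 reagent after compound exposure, IC50 derived from plotted growth inhibition curves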
[2] = hPBMC, 24 h, serially diluted 0.03-1000 nM

Chain of human Cereblon WT GST-tagged protein (Q96SW2 whole entry): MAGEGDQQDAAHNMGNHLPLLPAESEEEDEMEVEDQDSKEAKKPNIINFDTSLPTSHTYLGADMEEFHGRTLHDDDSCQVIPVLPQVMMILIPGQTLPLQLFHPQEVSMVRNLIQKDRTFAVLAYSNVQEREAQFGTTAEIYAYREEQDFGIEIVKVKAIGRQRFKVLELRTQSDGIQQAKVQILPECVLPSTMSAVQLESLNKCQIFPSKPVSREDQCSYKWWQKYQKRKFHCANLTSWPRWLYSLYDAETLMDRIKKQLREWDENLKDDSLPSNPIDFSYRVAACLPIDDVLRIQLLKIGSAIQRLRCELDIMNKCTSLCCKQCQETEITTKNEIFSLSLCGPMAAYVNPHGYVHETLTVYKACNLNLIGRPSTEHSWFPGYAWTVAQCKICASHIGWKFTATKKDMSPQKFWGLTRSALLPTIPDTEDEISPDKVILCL
Chain of GSPT1 protein (P15170 whole entry): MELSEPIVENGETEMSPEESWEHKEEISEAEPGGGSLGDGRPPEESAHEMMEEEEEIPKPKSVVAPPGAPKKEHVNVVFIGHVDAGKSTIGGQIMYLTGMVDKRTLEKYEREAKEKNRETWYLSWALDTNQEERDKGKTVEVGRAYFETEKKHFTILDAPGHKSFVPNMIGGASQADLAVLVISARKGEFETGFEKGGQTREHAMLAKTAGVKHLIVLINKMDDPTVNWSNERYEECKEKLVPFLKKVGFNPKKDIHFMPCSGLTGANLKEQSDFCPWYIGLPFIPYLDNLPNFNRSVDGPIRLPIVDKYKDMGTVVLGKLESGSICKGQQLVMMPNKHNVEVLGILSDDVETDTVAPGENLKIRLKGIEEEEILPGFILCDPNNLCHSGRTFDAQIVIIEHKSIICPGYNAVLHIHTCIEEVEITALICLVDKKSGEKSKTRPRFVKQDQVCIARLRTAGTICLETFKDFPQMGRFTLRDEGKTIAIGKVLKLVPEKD
Chain of GSPT1 protein (Q96SW2 whole entry): as the sequence (Q96SW2 whole entry) above
Chain of GSPT1 protein (Q16531 whole entry partner): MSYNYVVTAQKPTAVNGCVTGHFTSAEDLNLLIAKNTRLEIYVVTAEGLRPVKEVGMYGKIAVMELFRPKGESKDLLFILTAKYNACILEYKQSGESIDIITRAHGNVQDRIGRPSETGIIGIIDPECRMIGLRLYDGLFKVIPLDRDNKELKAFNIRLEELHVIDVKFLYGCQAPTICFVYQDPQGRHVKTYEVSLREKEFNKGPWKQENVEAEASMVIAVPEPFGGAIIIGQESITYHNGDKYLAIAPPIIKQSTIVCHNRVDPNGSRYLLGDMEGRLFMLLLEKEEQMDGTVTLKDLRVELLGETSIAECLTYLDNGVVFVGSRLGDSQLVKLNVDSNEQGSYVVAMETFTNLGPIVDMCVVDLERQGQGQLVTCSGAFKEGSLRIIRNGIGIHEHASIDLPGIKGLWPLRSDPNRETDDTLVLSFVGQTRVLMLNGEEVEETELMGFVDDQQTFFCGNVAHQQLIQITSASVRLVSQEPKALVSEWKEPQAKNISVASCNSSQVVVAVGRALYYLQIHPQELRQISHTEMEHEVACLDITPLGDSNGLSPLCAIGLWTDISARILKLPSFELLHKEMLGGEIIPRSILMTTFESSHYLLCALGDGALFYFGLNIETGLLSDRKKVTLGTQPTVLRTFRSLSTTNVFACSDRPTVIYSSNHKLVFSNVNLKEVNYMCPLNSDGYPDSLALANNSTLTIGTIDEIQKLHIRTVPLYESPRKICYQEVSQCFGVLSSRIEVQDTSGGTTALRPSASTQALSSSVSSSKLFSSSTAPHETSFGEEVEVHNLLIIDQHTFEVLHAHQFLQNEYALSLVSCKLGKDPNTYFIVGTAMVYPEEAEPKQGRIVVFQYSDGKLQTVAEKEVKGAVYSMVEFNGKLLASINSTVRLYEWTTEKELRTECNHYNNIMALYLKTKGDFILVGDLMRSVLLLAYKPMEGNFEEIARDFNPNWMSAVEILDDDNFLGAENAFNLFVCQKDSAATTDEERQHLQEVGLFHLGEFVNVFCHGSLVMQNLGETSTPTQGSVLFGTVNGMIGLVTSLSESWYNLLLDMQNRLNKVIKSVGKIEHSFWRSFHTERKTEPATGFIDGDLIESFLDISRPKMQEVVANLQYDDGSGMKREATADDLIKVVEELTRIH
Chain of IKZF3 protein (Q9UKT9 whole entry): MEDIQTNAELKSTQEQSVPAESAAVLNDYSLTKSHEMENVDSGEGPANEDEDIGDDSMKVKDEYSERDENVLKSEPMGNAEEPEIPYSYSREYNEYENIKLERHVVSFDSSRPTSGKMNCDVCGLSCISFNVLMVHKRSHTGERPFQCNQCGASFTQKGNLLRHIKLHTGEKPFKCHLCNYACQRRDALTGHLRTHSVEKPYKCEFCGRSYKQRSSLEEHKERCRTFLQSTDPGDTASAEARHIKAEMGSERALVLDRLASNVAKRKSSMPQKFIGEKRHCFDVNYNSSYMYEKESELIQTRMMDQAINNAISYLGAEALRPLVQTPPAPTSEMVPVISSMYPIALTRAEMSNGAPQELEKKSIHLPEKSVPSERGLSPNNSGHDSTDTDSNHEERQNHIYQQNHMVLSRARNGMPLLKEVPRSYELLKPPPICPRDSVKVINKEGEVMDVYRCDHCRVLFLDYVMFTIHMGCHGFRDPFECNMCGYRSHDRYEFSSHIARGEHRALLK
Chain of IKZF3 protein (Q96SW2 whole entry): as the sequence (Q96SW2 whole entry) above
Chain of IKZF3 protein (Q16531 whole entry partner): as the sequence (Q16531 whole entry partner) above
Chain of IKZF1 protein (Q13422 whole entry): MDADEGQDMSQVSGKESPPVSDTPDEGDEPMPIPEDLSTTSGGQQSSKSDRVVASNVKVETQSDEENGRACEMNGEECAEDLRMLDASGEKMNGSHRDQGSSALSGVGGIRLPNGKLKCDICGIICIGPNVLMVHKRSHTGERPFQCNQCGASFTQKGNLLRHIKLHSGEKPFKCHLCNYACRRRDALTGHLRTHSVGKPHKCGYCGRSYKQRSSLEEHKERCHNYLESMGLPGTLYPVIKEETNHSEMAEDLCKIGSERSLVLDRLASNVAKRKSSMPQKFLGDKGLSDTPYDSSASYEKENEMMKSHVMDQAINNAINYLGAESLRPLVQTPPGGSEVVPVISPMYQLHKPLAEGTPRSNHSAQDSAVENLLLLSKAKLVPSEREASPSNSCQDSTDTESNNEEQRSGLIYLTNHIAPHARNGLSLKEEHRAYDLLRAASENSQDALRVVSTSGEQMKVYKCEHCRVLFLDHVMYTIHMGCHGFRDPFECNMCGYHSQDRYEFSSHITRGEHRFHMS
Chain of IKZF1 protein (Q96SW2 whole entry): as the sequence (Q96SW2 whole entry) above
Chain of IKZF1 protein (Q16531 whole entry partner): as the sequence (Q16531 whole entry partner) above

Structure (SMILES) | IC50 [1] [µM] | residual substrate protein level, GSPT1 (GSPT1 protein) | residual substrate protein level, IKZF1 (IKZF1 protein) | residual substrate protein level, IKZF3 (IKZF3 protein) | IC50 (CCRF-CEM cells) [µM] | IC50 (MM.1S cells) [µM] | IC50 (Mino cells) [µM] | concentration at which significant degradation effects on GSPT1 protein are exhibited (FIG. 1) (GSPT1 protein; [2]) [nM] | concentration at which significant degradation effects on IKZF1 protein are exhibited (FIG. 1) (IKZF1 protein; [2]) [nM] | concentration at which significant degradation effects on IKZF3 protein are exhibited (FIG. 1) (IKZF3 protein; [2]) [nM]
CC1(C)CCC(C(=O)N2CCN(Cc3cc4c(cc3F)C(=O)N(C3CCC(=O)NC3=O)C4)CC2)=C(c2ccc(Cl)cc2)C1 (stereo not drawn) [GT-05526, 3-(5-((4-(4′-chloro-5,5-dimethyl-3,4,5,6-tetrahydro-[1,1′-biphenyl]-2-carbonyl)piperazin-1-yl)methyl)-6-fluoro-1-oxoisoindolin-2-yl)piperidine-2,6-dione] | 0.69 | A (A represents a residual substrate protein level of <50%) | B (B represents a residual substrate protein level of >50%) | B (B represents a residual substrate protein level of >50%) | 0.5 to 1 |  |  |  |  | 
O=C1CCC(N2Cc3cc(CN4CCN(Cc5ccccc5-c5cncs5)CC4)ccc3C2=O)C(=O)N1 (stereo not drawn) [GT-05684, 3-(1-oxo-5-((4-(2-(thiazol-5-yl)benzyl)piperazin-1-yl)methyl)isoindolin-2-yl)piperidine-2,6-dione] | 0.54 | A (A represents a residual substrate protein level of <50%) | A (A represents a residual substrate protein level of <50%) | A (A represents a residual substrate protein level of <50%) | 0.1 to 0.5 | 0.05 to 0.1 | 0.01 to 0.05 |  |  | 
O=C1CCC(N2Cc3cc(C(=O)N4CC5CN(Cc6ccccc6-c6ccc(Cl)cc6)CC5C4)ccc3C2=O)C(=O)N1 (stereo not drawn) [GT-05642, 3-(5-(5-((4′-chloro-[1,1′-biphenyl]-2-yl)methyl)octahydropyrrolo[3,4-c]pyrrole-2-carbonyl)-1-oxoisoindolin-2-yl)piperidine-2,6-dione] | 0.49 | A (A represents a residual substrate protein level of <50%) | B (B represents a residual substrate protein level of >50%) | B (B represents a residual substrate protein level of >50%) | 0.05 to 0.1 | 0.1 to 0.5 |  |  |  | 
Cc1ccc(C2=C(CN3CCN(Cc4ccc5c(c4)C(=O)N(C4CCC(=O)NC4=O)C5=O)CC3)CCC(C)(C)C2)cc1 (stereo not drawn) [GT-05793, 2-(2,6-dioxopiperidin-3-yl)-5-((4-((4′,5,5-trimethyl-3,4,5,6-tetrahydro-[1,1′-biphenyl]-2-yl)methyl)piperazin-1-yl)methyl)isoindoline-1,3-dione] |  | A (A represents a residual substrate protein level of <50%) | B (B represents a residual substrate protein level of >50%) | A (A represents a residual substrate protein level of <50%) | 0.1 to 0.5 | 0.1 to 0.5 | 0.1 to 0.5 |  |  | 
CC1(C)CCC(CN2CCN(Cc3ccc4c(c3)C(=O)N(C3CCC(=O)NC3=O)C4=O)CC2)=C(c2ccc(Cl)cc2)C1 (stereo not drawn) [GT-05364, 5-((4-((4′-chloro-5,5-dimethyl-3,4,5,6-tetrahydro-[1,1′-biphenyl]-2-yl)methyl)piperazin-1-yl)methyl)-2-(2,6-dioxopiperidin-3-yl)isoindoline-1,3-dione] |  | A (A represents a residual substrate protein level of <50%) | A (A represents a residual substrate protein level of <50%) | A (A represents a residual substrate protein level of <50%) | 0.1 to 0.5 | 0.1 to 0.5 |  |  |  | 
O=C1CCC(N2Cc3cc(C(=O)N4CCC(Nc5ccccc5-c5ccc(Cl)cc5)CC4)ccc3C2=O)C(=O)N1 (stereo not drawn) [GT-05646, 3-(5-(4-((4′-chloro-[1,1′-biphenyl]-2-yl)amino)piperidine-1-carbonyl)-1-oxoisoindolin-2-yl)piperidine-2,6-dione] | 1.02 | A (A represents a residual substrate protein level of <50%) | B (B represents a residual substrate protein level of >50%) | B (B represents a residual substrate protein level of >50%) | 0.1 to 0.5 | 0.1 to 0.5 |  |  |  | 
O=C1CCC(N2Cc3cc(CN4CC5(C4)CN(Cc4ccccc4-c4ccc(Cl)cc4)C5)ccc3C2=O)C(=O)N1 (stereo not drawn) [GT-05709, 3-(5-((6-((4′-chloro-[1,1′-biphenyl]-2-yl)methyl)-2,6-diazaspiro[3.3]heptan-2-yl)methyl)-1-oxoisoindolin-2-yl)piperidine-2,6-dione] | 0.66 | A (A represents a residual substrate protein level of <50%) | A (A represents a residual substrate protein level of <50%) | A (A represents a residual substrate protein level of <50%) | 0.01 to 0.05 | 0.01 to 0.05 | 0.05 to 0.1 |  |  | 
O=C1CCC(N2Cc3cc(CN4CC5(CCN(C(=O)c6ccccc6-c6ccc(Cl)cc6)CC5)C4)ccc3C2=O)C(=O)N1 (stereo not drawn) [GT-05620, 3-(5-((7-(4′-chloro-[1,1′-biphenyl]-2-carbonyl)-2,7-diazaspiro[3.5]nonan-2-yl)methyl)-1-oxoisoindolin-2-yl)piperidine-2,6-dione] | 0.59 |  |  |  | 0.1 to 0.5 | 0.01 to 0.05 | 0.1 to 0.5 | < 3 | < 3 | < 3
CC1(C)CCC(CN2CCN(Cc3cc4c(cc3F)C(=O)N(C3CCC(=O)NC3=O)C4)C(C(F)(F)F)C2)=C(c2ccc(Cl)cc2)C1 (stereo not drawn) [GT-06101, 3-(5-((4-((4′-chloro-5,5-dimethyl-3,4,5,6-tetrahydro-[1,1′-biphenyl]-2-yl)methyl)-2-(trifluoromethyl)piperazin-1-yl)methyl)-6-fluoro-1-oxoisoindolin-2-yl)piperidine-2,6-dione] |  |  |  |  | 0.5 to 1 |  |  |  |  | 
O=C1CCC(N2Cc3cc(CN4CCN(Cc5ccccc5-c5ccc(Cl)cc5)CC4C(F)(F)F)ccc3C2=O)C(=O)N1 (stereo not drawn) [GT-05711, 3-(5-((4-((4′-chloro-[1,1′-biphenyl]-2-yl)methyl)-2-(trifluoromethyl)piperazin-1-yl)methyl)-1-oxoisoindolin-2-yl)piperidine-2,6-dione] | 0.49 |  |  |  | 0.1 to 0.5 |  |  |  |  | 
CC1(C)CCC(CN2CCN(Cc3ccc4c(c3)CN(C3CCC(=O)NC3=O)C4=O)CC2)=C(c2cnco2)C1 (stereo not drawn) [GT-05848, 3-(5-((4-((4,4-dimethyl-2-(oxazol-5-yl)cyclohex-1-en-1-yl)methyl)piperazin-1-yl)methyl)-1-oxoisoindolin-2-yl)piperidine-2,6-dione] | 0.71 | B (B represents a residual substrate protein level of >50%) | A (A represents a residual substrate protein level of <50%) | A (A represents a residual substrate protein level of <50%) |  | 0.05 to 0.1 | 0.05 to 0.1 |  |  | 
Cn1nccc1-c1ccccc1CN1CCN(Cc2ccc3c(c2)CN(C2CCC(=O)NC2=O)C3=O)CC1 (stereo not drawn) [GT-05702, 3-(5-((4-(2-(1-methyl-1H-pyrazol-5-yl)benzyl)piperazin-1-yl)methyl)-1-oxoisoindolin-2-yl)piperidine-2,6-dione] | 0.61 | A (A represents a residual substrate protein level of <50%) | A (A represents a residual substrate protein level of <50%) | A (A represents a residual substrate protein level of <50%) |  | 0.1 to 0.5 | 0.5 to 1 |  |  | 
O=C1CCC(N2Cc3cc(CN4CCN(Cc5ccccc5-c5cnco5)CC4)ccc3C2=O)C(=O)N1 (stereo not drawn) [GT-05849, 3-(5-((4-(2-(oxazol-5-yl)benzyl)piperazin-1-yl)methyl)-1-oxoisoindolin-2-yl)piperidine-2,6-dione] | 0.99 | A (A represents a residual substrate protein level of <50%) | A (A represents a residual substrate protein level of <50%) | A (A represents a residual substrate protein level of <50%) |  | 0.1 to 0.5 | 0.1 to 0.5 |  |  | 
O=C1CCC(N2Cc3cc(CN4CC5CCC(C4)N5C(=O)c4ccccc4-c4ccc(Cl)cc4)ccc3C2=O)C(=O)N1 (stereo not drawn) [GT-05542, 3-(5-((8-(4′-chloro-[1,1′-biphenyl]-2-carbonyl)-3,8-diazabicyclo[3.2.1]octan-3-yl)methyl)-1-oxoisoindolin-2-yl)piperidine-2,6-dione] | 0.44 |  |  |  | 0.01 to 0.05 | 0.01 to 0.05 | < 0.005 |  |  | 
CC1(C)CCC(CN2CCN(Cc3ccc4c(c3)CN(C3CCC(=O)NC3=O)C4=O)CC2)=C(c2ccco2)C1 (stereo not drawn) [GT-05790, 3-(5-((4-((2-(furan-2-yl)-4,4-dimethylcyclohex-1-en-1-yl)methyl)piperazin-1-yl)methyl)-1-oxoisoindolin-2-yl)piperidine-2,6-dione] | 0.57 |  |  |  | 0.05 to 0.1 | 0.01 to 0.05 | 0.01 to 0.05 |  |  | 
